Our source for the IC50, EC50 and CC50 values is patent US6211170A, “Azetidinone derivatives for the treatment of HCMV infections” (Boehringer Ingelheim (Canada) Ltd., priority 1998, dated 2001).

Where two headings read alike, the source gives them in different places. Where only a bound is given, the exact number is not on record here.

For orientation: IC50 means the concentration needed to halve the response being measured. As usually defined, the EC50 is the midpoint of the concentration-response curve.

The target of one series is T1, HCMV NO protease (Human cytomegalovirus, UniProt P16753).
T1 construct: HCMV NO protease
T1 sequence (P16753 1-256): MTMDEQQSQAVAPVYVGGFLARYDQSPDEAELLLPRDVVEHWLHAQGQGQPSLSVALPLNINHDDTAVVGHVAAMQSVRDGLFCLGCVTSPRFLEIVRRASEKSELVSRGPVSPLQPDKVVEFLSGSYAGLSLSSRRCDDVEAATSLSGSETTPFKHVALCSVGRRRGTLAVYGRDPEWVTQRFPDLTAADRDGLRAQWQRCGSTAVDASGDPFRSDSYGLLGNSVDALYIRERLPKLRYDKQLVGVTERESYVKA
As to the kind of experiment: HCMV NO Protease Assay (fluorogenic substrate cleavage). The class given is biochemical. The note with it: HCMV NO protease 100 nM, substrate 5 μM, pH 8, 2.5 h at 30°. The method, then:
This particular assay determines the ability of a test compound to inhibit the activity (IC50) of HCMV protease. More specifically, in the assay described herein, the inhibitory activity of the test compound is evaluated on the basis of its ability to interfere with the HCMV NO protease cleavage of a fluorogenic peptide substrate which in turn is based on the maturation cleavage site of the enzyme.
1. HCMV NO Protease Assay
Material & Methods: Fluorescence measurements were recorded on a Perkin-Elmer LS-50B spectrofluorimeter equipped with a plate reader accessory. UV measurements were recorded on a Thermomax® microplate reader from Molecular Devices Corporation, Menlo Park, Calif., USA.
HCMV NO protease was assayed with an internally quenched fluorogenic substrate based on the maturation cleavage site (Abz-[…](3-NO2)R--OH, kcat /KM =260 M^-1 s^-1). The fluorescence increase upon cleavage of the Ala-Ser amide bond was monitored using excitation λ=312 nm (slit 2.5 nm) and emission λ=415 nm (slit 5 nm). A protocol adaptable to a 96-well plate format was designed for the determination of IC50 values of inhibitors.
After this period, enzymatic hydrolysis of the fluorogenic substrate in the absence of inhibitor led to about a 30% conversion. Quenching was not required before fluorescence measurement since the total scanning time by the plate reader accessory was brief relative to the duration of the reaction. The aqueous incubation buffer contained 50 mM tris(hydroxymethyl)aminomethane.HCl pH 8, 0.5M Na2 SO4, 50 mM NaCl, 0.1 mM EDTA, 1 mM tris(2-carboxyethyl)phosphine.HCl, 3% v/v DMSO and 0.05% w/v casein. The final concentrations of HCMV NO protease (expressed in terms of total monomer concentration) and substrate were 100 nM and 5 μM respectively. IC50 values were obtained through fitting of the inhibition curve to a competitive inhibition model using SAS NLIN procedure. The mode of inhibition was determined by measurements of the initial rates (in cuvettes) at various substrate concentrations in the buffer as described above. The IC50 values listed in the following tables were obtained according to this assay.

Series [1] deals with HCMV (strain AD169, ATCC VR-538). As to the kind of experiment: Plaque Reduction Assay (PRA) in HCMV-infected Hs-68 cells. It is filed as cell-based, human cytomegalovirus (HCMV). How it is done: B. Plaque Reduction Assay (PRA):
Hs-68 cells (ATCC # CRL 1635) were seeded in 12-well plates at 83,000 cells/well in 1 mL of DMEM medium (Gibco Canada Inc.) supplemented with 10% fetal bovine serum (FBS, Gibco Canada Inc.). The plates were incubated for 3 days at 37° to allow the cells to reach 80-90% confluency prior to the assay.
The medium was removed from the cells by aspiration. The cells were then infected with approximately 50 PFU of HCMV (strain AD169, ATCC VR-538) in DMEM medium supplemented with 5% inactivated FBS (assay medium). (DMEM medium is commercially available and has been described by R. Dulbecco et al., Virology 1959, 8, 396.) The virus was allowed to adsorb to cells for 2 h at 37°. Following viral adsorption, the medium was removed from the wells by aspiration. The cells were then incubated with or without 1 mL of appropriate concentrations of test reagent in assay medium. Occasionally, test compounds were added 24 h post-infection. After 4 days of incubation at 37°, the medium was exchanged with fresh medium containing test compound and 4 days later the cells were fixed with 1% aqueous formaldehyde and stained with a 2% violet solution in 20% ethanol in water. Microscopic plaques were counted using a stereomicroscope. Drug effects were calculated as a percent reduction in the number of plaques in the presence of each drug concentration compared to the number observed in the absence of drug. Ganciclovir was used as a positive control in all experiments.
(In a plaque reduction assay, fewer plaques than in the control indicate reduced infectivity or spread.)

The nature of series [2]: Cytotoxicity, tetrazolium salt (MTT) metabolic assay. The class given is cell-based. The note with it: cytotoxic effects, read-out: TC50 (the source's name). The method, then: Cytotoxic effects noted as TC50 in the following tables were determined according to the tetrazolium salt (MTT) metabolic assay, F. Denizot and F. Lang, J. Immun. Meth., 1986, 89, 271.
Where [3] appears, read: Human betaherpesvirus 5, Hs68, 192 h, plaque reduction, HCMV strain AD169, Hs-68 cells, 8 days, read-out: EC50.
Where [4] appears, read: Human betaherpesvirus 5, AD169, Hs68, 192 h.

Take `CN(Cc1ccccc1)C(=O)N1C(=O)C[C@@H]1CSc1ncccn1` [Entry 318]: 10 µM corresponded to half-maximal inhibition on HCMV NO protease (IC50). In series [1] (setting [3]), the EC50 turned out to be 150 µM. The CC50 in series [2] is > 150 µM.
In turn, `CN(Cc1ccco1)C(=O)N1C(=O)C[C@@H]1CSc1ncccn1` [Entry 303] registered an IC50 on HCMV NO protease of 17 µM.
Consider `CC[C@@H](NC(=O)N1C(=O)C[C@@H]1CSc1ccccn1)c1ccccc1` [Entry 103], for which the IC50 against HCMV NO protease came to 4 µM. Besides, the EC50 in series [1] (setting [3]) is 150 µM. Moreover, in series [2], the CC50 was > 250 µM.
The like results for `CC[C@@H](NC(=O)N1C(=O)[C@@H](C)[C@@H]1CSc1ccc(OC)cc1)c1ccccc1` [Entry 122] were, in that order, 4.8 µM, > 250 µM and > 250 µM.
As for `COC(=O)c1ccc(CN(C)C(=O)N2C(=O)C[C@@H]2CSc2nccn2C)cc1` [Entry 308], at HCMV NO protease, inhibition was half-maximal at 22 µM (IC50).
The compound `CC[C@@H](NC(=O)N1C(=O)C[C@@H]1COC(=O)c1ccc2ccccc2c1)c1ccccc1` [Entry 133] had a half-maximal inhibitory concentration (IC50) against HCMV NO protease of 0.95 µM. Also, in series [1] (setting [4]), the EC50 was 18 µM. Besides, in series [2], the CC50 was > 26 µM.
On HCMV NO protease, `CN(Cc1ccc(C(F)(F)F)cc1)C(=O)N1C(=O)C[C@@H]1CSc1nc2ccccc2o1` [Entry 319] yielded an IC50 of 1.7 µM. The EC50 in series [1] (setting [3]) amounted to 160 µM. Besides, the CC50 in series [2] is > 250 µM.
`CC[C@@H](NC(=O)N1C(=O)C[C@@H]1CSc1nccn1C)c1ccccc1` [Entry 140]: the IC50 at HCMV NO protease came out at 0.7 µM. In series [1] (setting [4]), the EC50 was > 268 µM. Also, the CC50 in series [2] is > 268 µM.
At HCMV NO protease, `CN(C)C(=O)c1ccc(CN(C)C(=O)N2C(=O)C[C@@H]2CSc2ncccn2)cc1` [Entry 305] came in with an IC50 of 14 µM. For the same compound, the EC50 in series [1] (setting [3]) amounted to 210 µM. For the same compound, in series [2], the CC50 is > 250 µM.
For `COC(=O)c1ccc(CN(C)C(=O)N2C(=O)C[C@@H]2CSc2nnnn2C)cc1` [Entry 309] the same measures were 1 µM, 130 µM and > 250 µM.
The like results for `CN(Cc1ccc(C(F)(F)F)cc1)C(=O)N1C(=O)C[C@@H]1CSc1ccncc1` [Entry 311] were, in that order, 0.6 µM, 250 µM and > 250 µM.
Compound `CN(C(=O)N1C(=O)C[C@@H]1CSc1ncccn1)c1ccccc1` [Entry 306] displayed an IC50 at HCMV NO protease of 22 µM.
On HCMV NO protease, `COC(=O)c1ccc(CN(C)C(=O)N2C(=O)C[C@@H]2CSc2nc3ccccc3o2)cc1` [Entry 310] had an IC50 of 3.3 µM.
`CC[C@@H](NC(=O)N1C(=O)[C@@H](C)[C@@H]1CSc1nc2ccccc2s1)c1ccccc1` [Entry 109]: half-maximal inhibition against HCMV NO protease (IC50) required 1.2 µM. For the same compound, the EC50 in series [1] (setting [3]) was found to be 160 µM. Moreover, in series [2], the CC50 was > 250 µM.
For the compound `CC[C@@H](NC(=O)N1C(=O)[C@@H](C)[C@@H]1CSc1nc2ccccc2o1)c1ccccc1` [Entry 112], at HCMV NO protease, 0.94 µM corresponded to half-maximal inhibition (IC50). Also, in series [1] (setting [3]), the EC50 came out at 140 µM. Also, the CC50 in series [2] is > 250 µM.
The like results for `CC[C@@H](NC(=O)N1C(=O)[C@@H](C)[C@@H]1COc1ccccc1)c1ccccc1` [Entry 102] were, in that order, 2.7 µM, > 250 µM and > 250 µM.
For `CN(Cc1ccc(C(F)(F)F)cc1)C(=O)N1C(=O)C[C@@H]1CSc1ncccn1` [Entry 301] the same measures were 1.7 µM, 95 µM and > 250 µM.
Compound `CC[C@@H](NC(=O)N1C(=O)C[C@@H]1CSc1nc2ccccc2o1)c1ccccc1` [Entry 141] gave an IC50 against HCMV NO protease of 0.8 µM. The compound further showed an EC50 in series [1] (setting [4]) of 22 µM. Further, the CC50 in series [2] was > 26 µM.
As for `CC[C@@H](NC(=O)N1C(=O)C[C@@H]1CS(=O)(=O)c1ccccc1)c1ccccc1` [Entry 144], the IC50 on HCMV NO protease was 1.9 µM. Also, in series [1] (setting [3]), the EC50 was 5 µM. Moreover, the CC50 in series [2] came out at 58 µM.
The like results for `CC[C@@H](NC(=O)N1C(=O)[C@@H](C)[C@@H]1CSc1ncccn1)c1ccccc1` [Entry 111] were, in that order, 0.65 µM, 110 µM and > 250 µM.
For the compound `CC[C@@H](NC(=O)N1C(=O)[C@@H](C)[C@@H]1CSc1nccc(C)n1)c1ccccc1` [Entry 123], inhibition against HCMV NO protease was half-maximal at 0.98 µM (IC50). In addition, the EC50 in series [1] (setting [3]) worked out at 150 µM. Further, the CC50 in series [2] is > 250 µM.
In turn, `CC[C@@H](NC(=O)N1C(=O)C[C@@H]1COC(C)=O)c1ccccc1` [Entry 132] showed an IC50 at HCMV NO protease of 3 µM. Further, in series [1] (setting [3]), the EC50 is 210 µM. Moreover, in series [2], the CC50 was > 250 µM.
For `CC[C@@H](NC(=O)N1C(=O)C[C@@H]1CN1CCCCC1)c1ccccc1` [Entry 206, 2-oxo-4(R)-(piperidin-1-ylmethyl)azetidine-1-carboxylic acid (1(R)-phenylpropyl)amide] the same measures were 3.7 µM, > 250 µM and > 250 µM.
For `CC(=O)OC[C@H]1CC(=O)N1C(=O)NCc1ccncc1` [Entry 207], the IC50 against HCMV NO protease is 46 µM.
As for `Cn1nnnc1SC[C@H]1CC(=O)N1C(=O)N1CCCC1c1ccccc1[N+](=O)[O-]` (some centres unmarked) [Entry 408], in series [1] (setting [3]), the 50% effective concentration (EC50) worked out at 100 µM. The CC50 in series [2] is > 133 µM.
On HCMV NO protease, `O=C(OCc1ccccc1)C1CCCN1C(=O)N1C(=O)C[C@@H]1CSc1ncccn1` (some centres unmarked) [Entry 401] came in with an IC50 of 21 µM.
`CN(CC1CCCCO1)C(=O)N1C(=O)C[C@@H]1CSc1ncccn1` (some centres unmarked) [Entry 315] had an IC50 against HCMV NO protease of 28 µM.
Same read-out and setting: to `CC[C@@H](NC(=O)N1C(=O)[C@@H](C)[C@@H]1CSc1ccccc1)c1ccccc1` [Entry 113] belongs 1.6 µM; to `CC[C@@H](NC(=O)N1C(=O)C[C@@H]1COc1cccc(CCC(=O)O)c1)c1ccccc1` [Entry 135], 0.1 µM.
The same measure, in the same setting: to `O=C1C[C@H](C[S+]([O-])c2ccccc2)N1C(=O)NCc1ccccc1` (stereo partly drawn) [Entry 202, 4(R) -benzenesulfinylmethyl-2-oxoazetidine-1-carboxylic acid benzylamide] belongs 13 µM; to `CC[C@@H](NC(=O)N1C(=O)C[C@@H]1COc1cccc(CC(=O)O)c1)c1ccccc1` [Entry 136], 0.1 µM.
Same read-out and setting: to `O=C1C[C@H](CSc2ncccn2)N1C(=O)N1CCC[C@H]1c1ccccc1` [Entry 402, 1-(2(S)-phenyl-pyrrolidine-1-carbonyl)-4-(pyrimidin-2-ylsulfanylmethyl)azetidin-2-one] belongs 34 µM; to `CC[C@@H](NC(=O)N1C(=O)C[C@@H]1CN(CC)CC)c1ccccc1` [Entry 210], 48 µM; to `CC[C@@H](NC(=O)N1C(=O)C[C@@H]1CN1CCOCC1)c1ccccc1` [Entry 205], 9.4 µM.
For the compound `CN(Cc1ccc([N+](=O)[O-])cc1)C(=O)N1C(=O)C[C@@H]1CSc1ncccn1` [Entry 322], in series [1] (setting [3]), the EC50 is > 118 µM. Also, in series [2], the CC50 was > 118 µM.
For the compound `CC[C@@H](NC(=O)N1C(=O)[C@@H](C)[C@@H]1CSC(C)C)c1ccccc1` [Entry 110], the IC50 at HCMV NO protease worked out at 5.6 µM.
Same read-out and setting: to `O=C1C[C@H](CS(=O)(=O)c2ccccc2)N1C(=O)NCc1ccccc1` [Entry 203, 2(R)-benzenesulfonylmethyl-4-oxoazetidine-1-carboxylic acid benzyl amide] belongs 24 µM.
Still for that read-out and setting: to `CCSC[C@H]1[C@H](C)C(=O)N1C(=O)N[C@H](CC)c1ccccc1` [Entry 120] belongs 4 µM.
On to `Cn1nnnc1SC[C@H]1CC(=O)N1C(=O)NC1CCc2ccccc21` (some centres unmarked) [Entry 211], for which the EC50 in series [1] (setting [3]) worked out at 140 µM. Besides, in series [2], the CC50 was 188 µM.
